From ChEMBL document CHEMBL3507680, “University of Dundee, Gates Library screen for HepG2 cell viability”

Experiment: Human HepG2 cell viability assay in 384 well format
Type: toxicity, cell-based
Design: dose 125 nL, time 70.5 hour; cytotoxicity at 70.5 h: concentration not given beside the values
Details: HepG2 cells, read-out: Inhibition

Row | SMILES | cytotoxicity at 70.5 h
1 | COc1ccc(-c2n[nH]cc2CN2CCSCC2)c(OC)c1 | -7.44%
2 | COCC(=O)N(Cc1cccnc1)CC1CCN(C2CCCC2)CC1 | 1.31%
3 | Cc1cc(C)n2nc(C(=O)N3CCCC4(CNC(=O)O4)C3)cc2n1 (centres undefined) | 13.7%
4 | Cc1ccc(CN2CCC3(C2)C(=O)N(CC(N)=O)c2ccccc23)s1 (centres undefined) | -3.49%
5 | O=C(O)c1cccc(N2CCC(Oc3cccc(F)c3)CC2)n1 | -7%
6 | Cc1nn2c(N3CCCC(C(N)=O)C3)cc(-c3ccccc3)nc2c1C (centres undefined) | -3.49%
7 | CCCn1cnnc1CNC(=O)C1COc2ccc(OC)cc2C1 (centres undefined) | 20.1%
8 | CCOc1ccnc(NCc2nc(C)cc(C(F)(F)F)n2)n1 | -0.888%
9 | COc1cccc([C@@H]2CCN(Cc3cccc(C)n3)C[C@H]2O)c1 | -9.27%
10 | CC(=O)NCCNCc1cn(CCN2CCSCC2)nc1C | -5.7%
11 | CCN(C)S(=O)(=O)NCC1CCN(Cc2ccccc2C)CC1 | -9.65%
12 | COCC(C)N1CCc2onc(-c3ccc(C(F)(F)F)cc3)c2C1 (centres undefined) | -7.25%
13 | CCn1cncc1C1CC(=O)Nc2c1c(C)nn2-c1ccc(C)cc1 (centres undefined) | 1.51%
14 | Cc1c(C(C)NCC2CCCC2)cnn1-c1ccc(F)cc1F (centres undefined) | -11.6%
15 | CN(C)c1nc2c(c(=O)[nH]1)Cc1ccccc1OC2 | 31.5%
16 | Cc1nc(N(C)CCCc2nccn2C)c2nc(C)oc2n1 | -11.8%
17 | CCNC(=O)[C@@H]1C[C@H](n2cc(CC3CCCCC3)nn2)CN1 | -7.89%
18 | CN(Cc1nc(C2CC2)no1)C(=O)CN1CC(c2ccccc2)CC1=O (centres undefined) | -2.96%
19 | CCn1nc(CNC(=O)C2CCCN(CC(N)=O)C2)c2ccccc21 (centres undefined) | -14.9%
20 | CCN(CC)c1ncccc1CNCc1ccc(Cl)s1 | -7.77%
21 | Cc1ccc(NC2CCCN(Cc3ccc(Cl)cc3)C2)nn1 (centres undefined) | 25.4%
22 | COc1cc(Oc2ccc(C(F)(F)F)cn2)ccc1CN1CCCC1 | -10.7%

Row | SMILES | cytotoxicity at 70.5 h
23 | COc1cccc(OCC2CCCN(C(=O)CCCn3cccn3)C2)c1 (centres undefined) | -11%
24 | CCCc1nc(CN(CC)Cc2ccoc2)no1 | -7.87%
25 | COc1ccc(-c2ccc(C(=O)N3CCOCC3CC(N)=O)o2)cc1 (centres undefined) | -2.54%
26 | CCOc1ccc2[nH]c(=O)c(CN(C)CCc3cn[nH]c3)cc2c1 | 4.91%
27 | Cc1n[nH]c(C)c1CNc1nc(-c2ccco2)nc2c1CCNCC2 | 5.99%
28 | O=C(CCN1CCOCC1)NC1CCCN(CC2CCCCC2)C1 (centres undefined) | -3.9%
29 | N[C@H]1CC[C@@H](NC(=O)c2ccc3nc(-c4ccc(F)cc4)cn3c2)CC1 | -14.6%
30 | CN(C)C(=O)N1C[C@@H]2CC[C@H](C1)N(Cc1nnc(-c3ccccc3)o1)C2 | -16.7%
31 | CCc1c(C)sc2ncnc(N3C[C@H](O)[C@@H](N4CCCC4)C3)c12 | -2.63%
32 | Nc1nc(CCC(=O)N2C[C@@H](CN3CCCC3)C[C@H](CO)C2)n[nH]1 | -6.67%
33 | CC[C@H]1COCCN1C(=O)c1cnc(C(C)C)nc1C | 16.6%
34 | Cc1cc(C)nc(N2CCCC(Cn3cc(CN(C)C)nn3)C2)n1 (centres undefined) | -6.18%
35 | CCOc1ccc(CNCc2cccnc2N(C)C)cc1 | -5.74%
36 | O=C(CCN1CCCO1)N1CC[C@@H](CNC(=O)N2CCCC2)[C@H](O)C1 | 14%
37 | CC(C)c1nc(CN2CCc3onc(-c4cccc(F)c4)c3C2)no1 | -8.91%
38 | Cc1nc(C2CCCNC2)cc(N(Cc2c(C)nn(C)c2C)C2CC2)n1 (centres undefined) | -0.0304%
39 | CC(C)N1CCC(CC(=O)NC(C(=O)O)c2cccc(F)c2)CC1 (centres undefined) | -5.14%
40 | COc1ccc(-n2c(SCC(=O)O)nnc2-c2cn[nH]c2)cc1 | 15.3%
41 | O=C(CC1COCCN1)NCCc1nc(Cc2ccccc2)no1 (centres undefined) | -15.5%
42 | CC(NC(=O)Nc1ccccc1CN1CCOCC1)c1nnc(N)s1 (centres undefined) | -11.9%
43 | CCCn1cc(C(=O)NC(CC(=O)O)c2ccco2)c(C)n1 (centres undefined) | -8.82%
44 | CN(Cc1cnc(N)nc1)C(=O)C1CC(=O)N(Cc2ccncc2)C1 (centres undefined) | -10.8%
